17 molecules from PubChem BioAssay AID328 (DTP/NCI, 2004) can be followed below.

Values joined by “and” are separate entries in the source; they are usually repeats but may differ in a detail not shown here. Identical values can stand only once. Inconclusive results and toxic doses are left out. Starred links: 1 amine or outer side, 2 acyl side, 3 side chain; linkers in the order of their positions; H or OH if unused. Positions of bridges follow the written chain, without caps; N, C: chain ends. Non-standard residues stand in square brackets, D forms with d. Residues, ends and D or L forms follow the SMILES beside them. Chains are numbered I, II in the order given. ξ: configuration not given here. Actinocin(9to1) = Cc1c2oc3c(C)ccc(C(=O)[*:1])c3nc-2c(C(=O)[*:2])c(N)c1=O; ξPro(4ξ-Me) = CC1CNC(C(=O)O)C1; NMeV = CN[CH](C(=O)O)C(C)C; Sar = CNCC(=O)O

The test system of this assay is BDF1 mice, P388 leukemia ip, median survival T/C. Put plainly: NCI In Vivo Anticancer Drug Screen. Data for tumor model P388 Leukemia (intraperitoneal) in B6D2F1 (BDF1) mice. As to conditions: endpoint: median survival time, higher = longer survival. An outline of the steps:
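Transplantable tumour in mice; compound vs vehicle dosing; survival scored; ratio of treated to control reported.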

Setting [1] is: dose: 100.0 mg/kg/injection, schedule: Q01DX009 (ip), vehicle: saline.
The mark [2] stands for this setting: dose: 200.0 mg/kg/injection, schedule: Q01DX009 (ip), vehicle: saline.
[3] abbreviates: dose: 400.0 mg/kg/injection, schedule: Q01DX009 (ip), vehicle: saline.
Where [4] appears, read: dose: 100.0 mg/kg/injection, schedule: Q04DX003 (ip), vehicle: saline with Tween-80.
[5] abbreviates: dose: 200.0 mg/kg/injection, schedule: Q04DX003 (ip), vehicle: saline with Tween-80.
[6] abbreviates: dose: 400.0 mg/kg/injection, schedule: Q04DX003 (ip), vehicle: saline with Tween-80.
[7] abbreviates: dose: 150.0 mg/kg/injection, schedule: Q04DX003 (ip), vehicle: saline with Tween-80.
Setting [8] is: dose: 50.0 mg/kg/injection, schedule: Q01DX001 (ip), vehicle: Klucel (hydroxypropylcellulose) (HPC).

As for `CCNCc1cc(Nc2cc(C)nc(/N=C(\N)Nc3ccc(Cl)c(Cl)c3)n2)ccc1OC`, the T/C by setting is: (dose: 6.25 mg/kg/injection, schedule: Q01DX009 (ip), vehicle: Klucel (hydroxypropylcellulose) (HPC)) 90 % of control; (dose: 8.75 mg/kg/injection, schedule: Q04DX003 (ip), vehicle: Klucel (hydroxypropylcellulose) (HPC)) 112 % of control; (dose: 12.5 mg/kg/injection, schedule: Q01DX009 (ip), vehicle: Klucel (hydroxypropylcellulose) (HPC)) 100 % of control; (dose: 17.5 mg/kg/injection, schedule: Q04DX003 (ip), vehicle: Klucel (hydroxypropylcellulose) (HPC)) 108 % of control; (dose: 25.0 mg/kg/injection, schedule: Q01DX009 (ip), vehicle: Klucel (hydroxypropylcellulose) (HPC)) 90 % of control; (dose: 33.0 mg/kg/injection, schedule: Q04DX003 (ip), vehicle: Klucel (hydroxypropylcellulose) (HPC)) 116 % of control. The T/C was 108 % of control (dose: 35.0 mg/kg/injection, schedule: Q04DX003 (ip), vehicle: Klucel (hydroxypropylcellulose) (HPC)); 108 % of control (dose: 50.0 mg/kg/injection, schedule: Q04DX003 (ip), vehicle: Klucel (hydroxypropylcellulose) (HPC)); 108 % of control (dose: 75.0 mg/kg/injection, schedule: Q04DX003 (ip), vehicle: Klucel (hydroxypropylcellulose) (HPC)); 109 % of control (dose: 80.0 mg/kg/injection, schedule: Q04DX003 (ip), vehicle: Klucel (hydroxypropylcellulose) (HPC)).

For `O=C1C=CC(=O)N1Cc1ccco1`, the T/C is 100 % of control (dose: 50.0 mg/kg/injection, schedule: Q01DX009 (ip), vehicle: saline); 91 % of control and 95 % of control under setting [1]; 100 % of control under setting [2]; 91 % of control under setting [3].

In the case of `[Cl][Ni][Cl].[NH-]CCN1CC1.[NH-]CCN1CC1`, the T/C was 100 % of control (dose: 6.25 mg/kg/injection, schedule: Q01DX001 (ip), vehicle: saline); 100 % of control (dose: 12.5 mg/kg/injection, schedule: Q01DX001 (ip), vehicle: saline); 100 % of control (dose: 25.0 mg/kg/injection, schedule: Q01DX001 (ip), vehicle: saline).

Consider `COC1CCCCC1Br` (stereo not drawn), for which the T/C is, setting by setting: under setting [1], 113 % of control; under setting [2], 109 % of control; under setting [3], 104 % of control.

Take `CCCCC(O)C1=CC(=O)C2CC(C)=C(C)CC2C1=O` (stereo not drawn): the T/C under setting [4] is 92 % of control, the T/C under setting [5] was 102 % of control and the T/C under setting [6] was 100 % of control.

`Cc1c2oc3c(C)ccc(C(=O)NC4C(=O)NC(C(C)C)C(=O)N5CC(C)CC5C(=O)N(C)CC(=O)N(C)C(C(C)C)C(=O)OC4C)c3nc-2c(C(=O)NC2C(=O)NC(C(C)C)C(=O)N3CC(C)CC3C(=O)N(C)CC(=O)N(C)C(C(C)C)C(=O)OC2C)c(N)c1=O` (stereo not drawn) (I: TV[ξPro(4ξ-Me)][Sar][NMeV] / II: TV[ξPro(4ξ-Me)][Sar][NMeV]; ester I:1-I:C, II:1-II:C; linker I:N-II:N via Actinocin(9to1); configuration not given here): the T/C by setting is: (dose: 1.3 mg/kg/injection, schedule: Q01DX009 (ip), vehicle: saline + alcohol) 204 % of control; (dose: 2.16 mg/kg/injection, schedule: Q01DX009 (ip), vehicle: saline + alcohol) 228 % of control; (dose: 3.24 mg/kg/injection, schedule: Q04DX003 (ip), vehicle: saline + alcohol) 190 % of control and 161 % of control and 193 % of control; (dose: 3.6 mg/kg/injection, schedule: Q01DX009 (ip), vehicle: saline + alcohol) 314 % of control; (dose: 5.4 mg/kg/injection, schedule: Q04DX003 (ip), vehicle: saline + alcohol) 160 % of control and 219 % of control; (dose: 9.0 mg/kg/injection, schedule: Q04DX003 (ip), vehicle: saline + alcohol) 160 % of control and 209 % of control and 99 % of control. Moreover, the T/C by setting is: (dose: 15.0 mg/kg/injection, schedule: Q04DX003 (ip), vehicle: saline + alcohol) 104 % of control and 207 % of control; (dose: 288.0 micrograms/kg/injection, schedule: Q01DX009 (ip), vehicle: saline + alcohol) 169 % of control; (dose: 480.0 micrograms/kg/injection, schedule: Q01DX009 (ip), vehicle: saline + alcohol) 176 % of control; (dose: 800.0 micrograms/kg/injection, schedule: Q01DX009 (ip), vehicle: saline + alcohol) 194 % of control; (dose: 864.0 micrograms/kg/injection, schedule: Q04DX003 (ip), vehicle: saline + alcohol) 101 % of control; (dose: 2400.0 micrograms/kg/injection, schedule: Q04DX003 (ip), vehicle: saline + alcohol) 167 % of control. The T/C (dose: 4000.0 micrograms/kg/injection, schedule: Q04DX003 (ip), vehicle: saline + alcohol) was 151 % of control and 194 % of control.

In the case of `O=C(Nc1cc(C(F)(F)F)cc(C(F)(F)F)c1)Nc1c(Oc2ccc(Cl)cc2Cl)ccc(Cl)c1S(=O)(=O)O`, the T/C was 87 % of control (dose: 50.0 mg/kg/injection, schedule: Q04DX003 (ip), vehicle: saline sonified) and 87 % of control (dose: 100.0 mg/kg/injection, schedule: Q04DX003 (ip), vehicle: saline sonified).

For the molecule `CN(N=O)C(=O)Nc1ccc(C(=O)O)cc1`, the T/C runs as follows: (dose: 29.0 mg/kg/injection, schedule: Q04DX003 (ip), vehicle: saline with Tween-80) 159 % of control; (dose: 45.0 mg/kg/injection, schedule: Q04DX003 (ip), vehicle: saline with Tween-80) 163 % of control; (dose: 66.0 mg/kg/injection, schedule: Q04DX003 (ip), vehicle: saline with Tween-80) 170 % of control; under setting [4], 250 % of control; under setting [7], 240 % of control.

In the case of `CCC1OC(=O)C(C)C(OC2CC(C)(O)C(O)C(C)O2)C(C)C(O)C(C)(O)CC(C)C(=O)C(C)C(O)C1C` (stereo not drawn), the T/C is, setting by setting: under setting [1], 100 % of control; under setting [2], 94 % of control.

On to `O=C1CN=C(c2ccccn2)c2cc(Cl)ccc2N1CCO`, for which the T/C under setting [4] was 105 % of control, the T/C under setting [5] is 110 % of control and the T/C under setting [6] was 115 % of control.

With `COc1cccc(/C=N\O)c1`, the T/C under setting [4] was 104 % of control, the T/C under setting [5] was 100 % of control and the T/C under setting [6] was 104 % of control.

Take `O=[N+]([O-])c1ccc(N2CCN(c3ccccc3)CC2)c2c1no[n+]2[O-]`: the T/C (dose: 75.0 mg/kg/injection, schedule: Q04DX003 (ip), vehicle: saline with Tween-80) was 108 % of control and the T/C under setting [7] is 111 % of control.

Regarding `O=c1[nH]c2ccc(Br)cc2c(=O)o1`, the T/C was 104 % of control (dose: 25.0 mg/kg/injection, schedule: Q01DX001 (ip), vehicle: Klucel (hydroxypropylcellulose) (HPC)); 109 % of control (dose: 35.0 mg/kg/injection, schedule: Q01DX001 (ip), vehicle: Klucel (hydroxypropylcellulose) (HPC)); 104 % of control under setting [8]; 95 % of control (dose: 75.0 mg/kg/injection, schedule: Q01DX001 (ip), vehicle: Klucel (hydroxypropylcellulose) (HPC)); 150 % of control (dose: 100.0 mg/kg/injection, schedule: Q01DX009 (ip), vehicle: saline with Tween-80); 92 % of control (dose: 250.0 mg/kg/injection, schedule: Q01DX001 (ip), vehicle: Klucel (hydroxypropylcellulose) (HPC)). Besides, the T/C (dose: 400.0 mg/kg/injection, schedule: Q01DX001 (ip), vehicle: Klucel (hydroxypropylcellulose) (HPC)) is 88 % of control.

Regarding `OCCN1CCN(CCCN2c3ccccc3CCc3ccccc32)CC1`, the T/C is, setting by setting: (dose: 25.0 mg/kg/injection, schedule: Q04DX003 (ip), vehicle: saline) 103 % of control and 117 % of control; (dose: 50.0 mg/kg/injection, schedule: Q04DX003 (ip), vehicle: saline) 100 % of control and 107 % of control; (dose: 100.0 mg/kg/injection, schedule: Q04DX003 (ip), vehicle: saline) 115 % of control and 116 % of control.

For the molecule `N#Cc1cnccn1`, the T/C is 100 % of control under setting [1], 100 % of control under setting [2] and 87 % of control under setting [3].

With `O=C(O)CCCCOc1ccc(N(CCCl)CCCl)cc1`, the T/C under setting [8] is 174 % of control; the T/C (dose: 100.0 mg/kg/injection, schedule: Q01DX001 (ip), vehicle: Klucel (hydroxypropylcellulose) (HPC)) was 177 % of control; the T/C (dose: 200.0 mg/kg/injection, schedule: Q01DX001 (ip), vehicle: Klucel (hydroxypropylcellulose) (HPC)) was 155 % of control.

`O=C1/C(=C/c2cccc([N+](=O)[O-])c2)CCc2ccccc21`: the T/C reads like this: (dose: 100.0 mg/kg/injection, schedule: Q04DX003 (ip), vehicle: Klucel (hydroxypropylcellulose) (HPC)) 100 % of control; (dose: 200.0 mg/kg/injection, schedule: Q04DX003 (ip), vehicle: Klucel (hydroxypropylcellulose) (HPC)) 100 % of control; (dose: 400.0 mg/kg/injection, schedule: Q01DX009 (ip), vehicle: Klucel (hydroxypropylcellulose) (HPC)) 104 % of control; (dose: 400.0 mg/kg/injection, schedule: Q04DX003 (ip), vehicle: Klucel (hydroxypropylcellulose) (HPC)) 95 % of control.
